One molecule from article doi:10.1101/2020.06.23.167346v1 (biorxiv, 2020) can be followed below.

Structures are written as SMILES.

The term IC50 denotes the concentration that inhibits the measured activity by half.

This experiment deals with T1, TcAK (T. cruzi arginine kinase) (Trypanosoma cruzi, UniProt O96507).
T1 sequence (O96507 1-357): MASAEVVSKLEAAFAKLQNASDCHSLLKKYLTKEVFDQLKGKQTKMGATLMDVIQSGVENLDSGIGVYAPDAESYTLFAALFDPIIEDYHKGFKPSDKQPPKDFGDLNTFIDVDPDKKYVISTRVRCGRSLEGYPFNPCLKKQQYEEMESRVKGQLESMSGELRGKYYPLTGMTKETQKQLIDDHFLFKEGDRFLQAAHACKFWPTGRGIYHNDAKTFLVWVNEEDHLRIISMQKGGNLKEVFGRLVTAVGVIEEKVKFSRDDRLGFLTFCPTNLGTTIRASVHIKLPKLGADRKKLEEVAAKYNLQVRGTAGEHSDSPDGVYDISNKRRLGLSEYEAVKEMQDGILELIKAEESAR
Briefly: coupled pyruvate kinase / lactate dehydrogenase assay, NADH absorbance at […] nm. Format: biochemical.

On to `COc1cc(CNC(=O)CCCC/C=C/C(C)C)ccc1O` [capsaicin, (E)-N-(4-hydroxy-3-methoxybenzyl)-8-methyl-6-nonenamide], for which the IC50 is roughly 800 µM.
